Experimental data taken from patent US9090631B2, “Process for purifying cefotiam hydrochloride” (HAINAN LINGKANG PHARMACEUTICAL CO., LTD., priority 2011, dated 2015).
Structures can show the parent of a compound that is named as a salt.

Assay: Solubility of cefotiam hydrochloride in recrystallization solvents
Assay type: physicochemical
From the text: The solubility of cefotiam hydrochloride is great in water but very small in ethanol, and even smaller in acetone. A mixture of water and ethanol or a mixture of water and acetone is used as the solvent to recrystallize cefotiam hydrochloride.

CN(C)CCn1nnnc1SCC1=C(C(=O)O)N2C(=O)[C@@H](NC(=O)Cc3csc(N)n3)[C@H]2SC1 [cefotiam hydrochloride, (6R,7R)-7-[[(2-amino-4-thiazolyl)acetyl]amino]-3-[[1-[2-(dimethylamino)ethyl]-1H-tetrazol-5-yl]thiomethyl]-8-oxo-5-thia-1-azabicyclo[4,2,0]oct-2-ene-2-carboxylic acid dihydrochloride]
solubility (in ethanol): very small | solubility (in water): great
